Article PMC7110780, “Multimodular fused acetyl–feruloyl esterases from soil and gut Bacteroidetes improve xylanase depolymerization of recalcitrant biomass” (Biotechnology for Biofuels, 2020)

Target: T1, BoCE6–CE1 (Bacteroides ovatus, UniProt A0ABU3ING8)
T1 construct: gene RO706_05995
Assay: absorbance […] nm
Format: biochemical
Settings: […] °C, […] buffer

T1 sequence (A0ABU3ING8 20-638): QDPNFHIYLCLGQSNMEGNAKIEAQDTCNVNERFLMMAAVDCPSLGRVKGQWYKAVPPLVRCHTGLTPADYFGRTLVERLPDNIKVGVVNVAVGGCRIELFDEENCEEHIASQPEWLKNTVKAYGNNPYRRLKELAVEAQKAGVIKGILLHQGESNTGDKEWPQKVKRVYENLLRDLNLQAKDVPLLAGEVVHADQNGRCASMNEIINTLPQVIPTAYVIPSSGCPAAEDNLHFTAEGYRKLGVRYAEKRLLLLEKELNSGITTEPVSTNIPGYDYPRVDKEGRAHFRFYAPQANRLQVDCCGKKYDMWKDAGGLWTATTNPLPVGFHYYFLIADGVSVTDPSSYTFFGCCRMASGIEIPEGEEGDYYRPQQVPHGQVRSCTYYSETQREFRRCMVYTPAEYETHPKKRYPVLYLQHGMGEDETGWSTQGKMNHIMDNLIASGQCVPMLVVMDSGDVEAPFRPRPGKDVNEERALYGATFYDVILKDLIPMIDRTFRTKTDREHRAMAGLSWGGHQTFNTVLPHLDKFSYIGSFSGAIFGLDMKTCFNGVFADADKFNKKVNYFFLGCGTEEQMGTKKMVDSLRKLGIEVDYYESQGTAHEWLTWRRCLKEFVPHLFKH

SMILES	absorbance 340 nm
COC(=O)/C=C/c1ccc(O)c(OC)c1 [MFA]	The activity on MFA and MSA was in the same order of magnitude for the full-length
COC(=O)/C=C/c1cc(OC)c(O)c(OC)c1 [MSA]	The activity on MFA and MSA was in the same order of magnitude for the full-length
